Earlier results on one molecule are cited in patent US20250144314A1, “VITAMIN K1 INJECTION DEVICE KIT” (ORBICULAR PHARMACEUTICAL TECHNOLOGIES PRIVATE LIMITED, priority 2022, published 2025).

The conditions of this series: estimate.

Consider `CC1=C(C/C=C(\C)CCC[C@H](C)CCC[C@H](C)CCCC(C)C)C(=O)c2ccccc2C1=O` [vitamin K, Phytonadione], for which the “absorbed vitamin K excreted from the body” value is “over 60%”.
